For series [1] the following is noted: cited from earlier work.
Series [2] can be described thus: Solubility check in organic oil solutions (78% oil, 20% benzyl benzoate, 2% benzyl alcohol). The series is classed as physicochemical. As to conditions: 25 °C; for solubility: oil or lipid, thermodynamic from solid, average of three; for solubility compared among the four esters (in words): oil solutions, comparison with the acetate ester. The protocol:
The solubility for the four esters (mg/mL) was measured in solutions of various organic oils: medium-chain triglyceride (MCT), grape seed oil (GSO), castor oil, cottonseed oil, apricot oil, and sesame oil.
Each solution was composed of a mixture of benzyl benzoate, benzyl alcohol, and oil having a volumetric ratio of 78% oil, 20% benzyl benzoate, and 2% benzyl alcohol. In various pharmaceutical preparations of lipophilic compounds, including various steroids, benzyl benzoate is used as a solubiliser (co-solvent), benzyl alcohol acts as a solvent and at the same time prevents microbial growth and increases the lipid solubility of various esterified compounds, while the oils are used as carriers.
In order to obtain good accuracy, three such procedures were carried out, and their average was used.

Details of series [3]: method as in PMID 8095531. As to conditions: microemulsion study, cited from earlier work.
[4] abbreviates: esterified forms of testosterone, intramuscular injections.
Setting [5] is: apricot oil / benzyl benzoate / benzyl alcohol solution, apricot oil 78% / benzyl benzoate 20% / benzyl alcohol 2%, read-out: Solubility APRICOT.
Where [6] appears, read: castor oil / benzyl benzoate / benzyl alcohol solution, castor oil 78% / benzyl benzoate 20% / benzyl alcohol 2%, read-out: Solubility CASTOR.
Setting [7] is: cottonseed oil / benzyl benzoate / benzyl alcohol solution, cottonseed oil 78% / benzyl benzoate 20% / benzyl alcohol 2%, read-out: Solubility COTTON.
Where [8] appears, read: grape seed oil / benzyl benzoate / benzyl alcohol solution, grape seed oil 78% / benzyl benzoate 20% / benzyl alcohol 2%, read-out: Solubility GSO.
The mark [9] stands for this setting: medium-chain triglyceride 78% / benzyl benzoate 20% / benzyl alcohol 2%, read-out: Solubility MCT.
Setting [10] is: sesame oil / benzyl benzoate / benzyl alcohol solution, sesame oil 78% / benzyl benzoate 20% / benzyl alcohol 2%, read-out: Solubility SESAME.

SMILES strings stand for the structures. Converted amounts (≈) assume the structure as drawn. Where two headings read alike, the source gives them in different places.

Regarding `CC(=O)OC1CCC2C3CCC4=CC(=O)CCC4(C)C3CCC12C` (stereo not drawn) [TAce, Androst-4-en-17β-ol-3-one 17β-acetate], the “Half-life (days)” value in series [1] (column of Table S2) is on record as “less than one day”. The half-life entry in series [1] (setting [4]) is listed as “less than 1 days”. Further, the solubility is 82.5 mg/mL (≈ 250 mM) in series [2] (setting [5]); 162 mg/mL (≈ 491 mM) in series [2] (setting [6]); 98.8 mg/mL (≈ 299 mM) in series [2] (setting [7]); 98.8 mg/mL (≈ 299 mM) in series [2] (setting [8]); 120 mg/mL (≈ 365 mM) in series [2] (setting [9]); 99 mg/mL (≈ 300 mM) in series [2] (setting [10]). Besides, the “solubility compared among the four esters (in words)” value in series [2] is “lowest solubility”.
With `CC(C)CCC(=O)OC1CCC2C3CCC4=CC(=O)CCC4(C)C3CCC12C` (stereo not drawn) [TIso, Androst-4-en-17β-ol-3-one 17β-4-methylpentanoate], the half-life in series [1] (setting [4]) is 74.4 h. The “solubility compared among the four esters (in words)” value in series [2] is “roughly four-fold greater solubility”.
`CC12CCC(=O)C=C1CCC1C2CCC2(C)C(OC(=O)CCc3ccccc3)CCC12` (stereo not drawn) [TPhp, Androst-4-en-17β-ol-3-one 17β-phenylpropionate]: the half-life in series [1] (setting [4]) is 60 h.
Regarding `CCC(=O)O[C@H]1CC[C@H]2[C@@H]3CCC4=CC(=O)CC[C@]4(C)[C@H]3CC[C@]12C` [TPro, Androst-4-en-17β-ol-3-one 17β-propionate], the “half-life” value in series [1] (column of Table S2) and in series [1] (setting [4]) was 24 h throughout. Moreover, the “concentration obtained in dimethoxytetraethylene glycol” value (from here on “concentration obtained”) in series [3] is 12000 µg/mL. In addition, the “concentration supported in soybean oil” value in series [3] is 3420 µg/mL. In addition, the solubility in series [2] (setting [5]) is 127 mg/mL (≈ 370 mM); in series [2] (setting [6]), 194 mg/mL (≈ 564 mM); in series [2] (setting [7]), 174 mg/mL (≈ 505 mM); in series [2] (setting [8]) it was 152 mg/mL (≈ 442 mM); in series [2] (setting [9]) it was 185 mg/mL (≈ 538 mM); in series [2] (setting [10]) it was 189 mg/mL (≈ 548 mM).
Consider `CC(=O)O[C@]1(C(C)=O)CC[C@H]2[C@@H]3C[C@H](C)C4=CC(=O)CC[C@]4(C)[C@H]3CC[C@@]21C` [medroxyprogesterone acetate], for which, in series [3], the “concentration obtained” value is 1320 µg/mL and the “concentration supported in soybean oil” value is 2160 µg/mL.
Take `C[C@]12CC[C@H]3[C@@H](CCC4=CC(=O)CC[C@@]43C)[C@@H]1CC[C@@H]2O` [testosterone base, 17β-hydroxyandrost-4-en-3-one]: the half-life result in series [1] (testosterone base (no ester)) is reported as “a few hours”.
`CCCCCCC(=O)O[C@H]1CC[C@H]2[C@@H]3CCC4=CC(=O)CC[C@]4(C)[C@H]3CC[C@]12C` [testosterone enanthate]: in series [3], the “concentration obtained” value is 91200 µg/mL and the “concentration supported in soybean oil” value is 31500 µg/mL.

Usually half-life stands for the time in which the quantity being followed falls by half. By solubility is commonly meant the concentration that dissolves in the medium under given conditions.

These data come from publication PMC9611952, “Structural Aspects and Intermolecular Energy for Some Short Testosterone Esters” (Materials, 2022).
